From patent publication US20200061026A1, “METHODS AND COMPOSITIONS FOR PREVENTING VECTOR-BORNE DISEASE TRANSMISSION” (The Scripps Research Institute, priority 2016, published 2020)
Several values for one entry are separate records, joined by “and”; a condition that tells them apart may be missing. Identical values can stand only once. Like-named read-outs stand apart in the source and are kept apart here.

Assays:
Anopheles stephensi = test: Standard membrane feeding assay, Anopheles stephensi; type: in vivo; details: for IC50: Anopheles stephensi; for killing of mosquitos (in words): lethality 1, 2 or 8 days after exposure; for whole blood IC99: mosquitocidal
Description: Mosquito colonies utilized in the examples were generally maintained as described: The colony of Anopheles stephensi (Sind-Kasur Nijmegen strain) was maintained at the Radboud University Medical Center, Nijmegen, The Netherlands, by 30° C. and 70-80% humidity and on a 12/12 hour day/night cycle. The Anopheles gambiae strains Kisumu and Tiassalé and the Aedes aegypti strains New Orleans and Cayman were reared at the Liverpool Insect Testing Establishment, Liverpool, UK. Kisumu is an insecticide susceptible lab strain. New Orleans was originally colonized by the Centers for Disease Control and Prevention. The Tiassalé strain was colonized from Southern Cote D'Ivoire where resistance to all classes of insecticide is found and the Cayman strain was colonized from Grand Cayman, where Aedes aegypti are highly resistant to DDT and pyrethroid insecticides. Both resistant strains are routinely selected with insecticides to ensure the maintenance of resistance, 0.75% permethrin for Cayman and 0.05% deltamethrin for Tiassalé, and profiled for resistance to a range of insecticides, including 4% dieldrin, to which Tiassalé is resistant but Cayman is susceptible.
Isoxazoline compounds fluralaner or afoxolaner were reconstituted in 50% human serum and 50% red blood cells and administered to adult Anopheles stephensi mosquitos via standard membrane feeding. Lethality was assessed 1, 2 or 8 days after exposure. FIG. 2A represents a plot of viable Anopheles stephensi versus fluralaner concentration at each day of assessment. FIG. 2B represents a plot of viable Anopheles stephensi versus afoxolaner concentration at each day of assessment. […] The IC50 values of each compound for Anopheles death were determined by logistic regression using a least squares method to find the best fit and are shown in Table 1. IC50 values were calculated by applying a four-parameter logistic regression model using a least-squares method to find the best fit using the Graphpad Prism 5.0 software package.
FIG. 2C represents a plot of viable Anopheles stephensi versus fluralaner concentration at each time of assessment. FIG. 2D represents a plot of viable Anopheles stephensi versus afoxolaner concentration at each time of assessment. FIG. 2E represents plots of viable Anopheles stephensi versus concentration of (S)- and (R)-enantiomers of afoxolaner at each time of assessment. […] The IC50 (M) concentrations are also shown for FIGS. 2C and 2D.

[1] = Further in vitro degradation assay, human primary hepatocytes; details: for half-life / hepatocyte CLint: human; for metabolization when incubated with human hepatocytes: in words
Description: In a further assay, isoxazolines (fluralaner and afoxolaner) and control compounds (7-Ethoxycoumarin and 7-Hydroxycoumarin [Sigma]) were dissolved in DMSO at 10 and 30 mM respectively, then diluted first 20-fold with 45% methanol in water and a further 10-fold in pre-warmed Williams' Medium E. Cryopreserved human, dog and rat hepatocytes (In Vitro Technologies) were thawed, isolated by percoll gradient and suspended in Williams' Medium E. Cells were then dispensed into the wells of 96-well plates containing 10 μL of diluted compounds, to reach a final concentration of 0.5×10^6 cells/mL and 1 μM of isoxazolines or 3 μM of control. After an incubation at 37° C. of 0, 15, 30, 60 or 90 minutes, the reaction was stopped with acetonitrile. The samples were then shaken for 10 minutes at 500 rpm and centrifuged at 3220 g for 20 minutes. Supernatants were transferred and stored at 4° C. until LC-MS-MS analysis.

Plasma stability, mouse = type: in vitro ADME; details: mouse (ms)
Excerpt: (§1) The stability of compounds in mouse (ms), rat (r), dog (d), cynomolgus monkey (cy), and human (hu) plasma is shown in Table 10 by the percentages of compounds remaining at two hours.

Plasma stability, rat = type: in vitro ADME; details: rat (r)
Excerpt: as §1

Plasma stability, dog = type: in vitro ADME; details: dog (d)
Excerpt: as §1

[2] = Plasma stability, cynomolgus monkey; type: in vitro ADME; details: cynomolgus monkey (cy)
Excerpt: as §1

Plasma stability, human = type: in vitro ADME; details: human (hu)
Excerpt: as §1

[3] = Dog pharmacokinetics, single oral dose; type: in vivo; details: level at Day 45
Brugia pahangi = Brugia pahangi microfilariae viability (Cell-Titer Glo); type: in vivo
Description: Microfilariae of Brugia pahangi were kept in 75 cm^2 flasks in RPMI-1640 with fetal bovine serum as described previously (Plos Negl. Trop. Dis. 2012, e1494). To test viability, 384-well plates were filled with 250 microfilariae per well. Serial dilutions of isoxazolines, ivermectin, moxidectin and equivalent vehicle concentration (0.5% DMSO) were added to the wells. Seventy two hours after treatment, viability was assessed with the Cell-Titer Glo reagent (Promega). FIG. 13A represents a plot of viable Brugia pahangi versus fluralaner, afoxolaner, or control compound (moxidectin and ivermectin) concentration as assessed at 24 hours. FIG. 13B represents a plot of viable Brugia pahangi versus fluralaner, afoxolaner, or control compound (moxidectin and ivermectin) concentration as assessed at 48 hours. FIG. 13C represents a plot of viable Brugia pahangi versus fluralaner, afoxolaner, or control compound (moxidectin and ivermectin) concentration as assessed at 72 hours.

[4] = Brain homogenate binding assay (equilibrium dialysis)
Description: Briefly, frozen tissue homogenate (homogenized with buffer at a certain volume ratio) was used as a test matrix. The tissue homogenate was purchased from Bioreclamation (Hicksville, N.Y., USA) or prepared by WuXi AppTec.
Isoxazoline compounds were spiked into blank tissue homogenate at the test concentration. Triplicate samples were used.
An appropriate volume of spiked tissue sample was removed before incubation for recovery calculation. An aliquot (e.g., 150 μL) of matrix sample was added to the donor side of the chamber (donor chamber) in a dialyzer plate (HTD dialysis device or RED device) and a certain amount of dialysis buffer was loaded to the other side of the chamber (receiver chamber). Triplicate incubations were performed (or other replicate number according to specific requirement).
The dialyzer plate was placed into a humidified incubator with 5% CO2 and incubated at 37° C. for appointed time (the general incubation time is 4-6 h).
After incubation, samples were removed from the donor side as well as the receiver side.
The samples were matched with appropriate amount of the opposite blank matrix (tissue homogenate or buffer). […]
The samples were analyzed by LC-MS/MS. Test compound concentrations in matrix and buffer samples were assessed based on the peak area ratios (PAR) of analyte/internal standard (no standard curve).

O=C(CNC(=O)c1ccc(C2=NO[C@](c3cc(Cl)cc(C(F)(F)F)c3)(C(F)(F)F)C2)c2ccccc12)NCC(F)(F)F (racemic) [Afoxolaner, afoxolaner]
IC50 (Anopheles stephensi; 24 h, read-out: IC50 (Anopheles death)): 107 nM
IC50 (Anopheles stephensi; 24 h, read-out: IC50 [95% CI]): 107 nM
IC50 (Anopheles stephensi; 48 h, read-out: IC50 (Anopheles death)): 34 nM
IC50 (Anopheles stephensi; 192 h, read-out: IC50 (Anopheles death)): 14 nM
killing of mosquitos (in words) (Anopheles stephensi): effective at killing the mosquitos in a dose-dependent manner
whole blood IC99 (Anopheles stephensi): 233 nM and 146 ng/mL
half-life ([1]; hepatocytes): > 3.61 h
hepatocyte CLint ([1]; hepatocytes): < 6.4 µL/min/1e6 cells
metabolization when incubated with human hepatocytes [1]: Neither fluralaner nor afoxolaner showed measurable metabolization
Plasma stability % remaining @ 2 h (Plasma stability, mouse): 83% (ms);
Plasma stability % remaining @ 2 h (Plasma stability, rat): 61% (r);
Plasma stability % remaining @ 2 h (Plasma stability, dog): 100% (d);
Plasma stability % remaining @ 2 h [2]: 84% (cy);
Plasma stability % remaining @ 2 h (Plasma stability, human): 84% (hu)
Dog PK (PO) [3]: ~600 nM at Day 45
killing of Brugia pahangi (in words) (Brugia pahangi): effective in killing Brugia pahangi

O=C(CNC(=O)c1ccc(C2=NO[C@@](c3cc(Cl)cc(Cl)c3)(C(F)(F)F)C2)c2ccccc12)NCC(F)(F)F [(S)-4-(5-(3,5-dichlorophenyl)-5-(trifluoromethyl)-4,5-dihydroisoxazol-3-yl)-N-(2-oxo-2-((2,2,2-trifluoroethyl)amino)ethyl)-1-naphthamide]
Brain homogenate % binding [4]: >99.9%

O=C(CNC(=O)c1ccc(C2=NO[C@@](c3cc(Cl)cc(C(F)(F)F)c3)(C(F)(F)F)C2)c2ccccc12)NCC(F)(F)F [(S)-afoxolaner]
Brain homogenate % binding [4]: >99.9%

Cc1cc(C2=NO[C@](c3cc(Cl)cc(Cl)c3)(C(F)(F)F)C2)ccc1C(=O)NCC(=O)NCC(F)(F)F [Fluralaner, fluralaner]
IC50 (Anopheles stephensi; 24 h, 1 day after exposure, read-out: IC50 (Anopheles death)): 54 nM
IC50 (Anopheles stephensi; 48 h, 2 days after exposure, read-out: IC50 (Anopheles death)): 42 nM
IC50 (Anopheles stephensi; 192 h, 8 days after exposure, read-out: IC50 (Anopheles death)): 37 nM
IC50 (Anopheles stephensi; 24 hours after the blood meal, read-out: IC50 [95% CI]): 56 nM
killing of mosquitos (in words) (Anopheles stephensi): effective at killing the mosquitos in a dose-dependent manner
whole blood IC99 (Anopheles stephensi): 119 nM and 66 ng/mL
half-life ([1]; cryopreserved hepatocytes): > 3.61 h
hepatocyte CLint ([1]; cryopreserved hepatocytes): < 6.4 µL/min/1e6 cells
metabolization when incubated with human hepatocytes [1]: Neither fluralaner nor afoxolaner showed measurable metabolization
killing of Brugia pahangi (in words) (Brugia pahangi): effective in killing Brugia pahangi
